Experimental data as given in US8137991B2, “Methods of reducing angiogenesis of age-related macular degeneration (AMD) or choroidal neovascularization by an anti-carboxyetheylpyrrole (CFP) antibody” (The Cleveland Clinic Foundation, priority 2006, dated 2012).

Columns and labels:
[1] = tested on: chick chorioallantoic membrane (CAM); test: Chick chorioallantoic membrane (CAM) angiogenesis assay; format: in vivo, chick (white Leghorn embryos); conditions: VEGF 20 ng, positive control, 48 hours
Method: Fertilized 3-day old white Leghorn eggs (CWRU, Squire valley farms) were cracked, and embryos with the yolk intact were placed in 100 mm×20 mm glass bottom Petri dishes. […] CAMs implanted with discs loaded with unmodified dipeptide, HSA, control buffer or with vascular endothelial growth factor (VEGF) were used as negative and positive controls respectively. After 48 hours of incubation, India ink was injected into the vascular system for better visualization of the vessels by a stereomicroscope. Images were captured with a Panasonic CCD camera. Samples were always compared on the same CAM to avoid egg-to-egg variability. For quantitative analysis of vessel density and leakage, CAM images were batch processed using customized macros generated in Image-Pro Plus 5.0 (Media Cybernetics, Silver Spring, Md.). Briefly, a region of interest (ROI) was traced around grafted tissue in each image, each image was then cropped to its ROI, converted to grayscale, and processed using a large spectral filter to enhance the appearance of vasculature whilst omitting presence of larger vessels (determined by filter width). […]
The protein preparations were analyzed for endotoxin and determined to be free of contamination.

[2] = tested on: rat cornea (limbal blood vessels); test: Rat corneal micropocket assay, angiogenic response to implanted pellets; format: in vivo, Sprague-Dawley rats; conditions: pellet 1 mm from limbus, CEP-HSA 1 μg, CEP-dipeptide 37 ng, dipeptide 41 ng
Method: Hydron/sucralfate pellets containing unmodified or CEP modified HSA or dipeptide with or without neutralizing antibodies (monoclonal mouse anti-human VEGF, 1.5 μg, R&D systems (MAB293) or monoclonal anti-CEP antibody (Gu, X., et al. (2003) J. Biol. Chem.), 4 μg) were inserted into corneal micropockets (1 mm from the limbus) of Sprague-Dawley rats. Control mouse IgM, 4 μg (eBioscience, cat. #14-4752) and mouse IgG, 1.5 μg (Southern Biotechnology Inc., cat. #0104-01) antibodies were used in control pellets for comparison with anti-CEP and anti-VEGF antibodies respectively. Corneas were examined daily with the aid of a surgical microscope to monitor angiogenic responses to CEP modified peptide or proteins. […] A positive neovascularization response was recorded only if sustained directional in-growth of capillary sprouts and hairpin loops toward the pellet was observed. A negative response was recorded when either no growth is observed or only an occasional sprout or hairpin loop showing no evidence of sustained growth was detected. […] Angiogenic response was analyzed for peak vascular extension and total skeletal (vascular) length using Image-Pro Plus 5.0 (Media Cybernetics, Silver Spring, Md.). […] The resulting image, a single segmented object representing the overall dimensions of the vascular bed, was analyzed for maximum box-width, i.e. extent of vessel penetration. […]

Q: Which “average skeletal density of CAM vessels” value [1] does the source give for VEGF here?
A: ~3.1

Q: For “acetyl-Gly-Lys-O-methyl ester [dipeptide]”, which “growth of limbal blood vessels towards the pellet” value [2] is on record?
A: did not induce this effect
